{"source": "patent US8618138B2", "about": "“Indole amide derivatives and related compounds for use in the treatment of neurodegenerative diseases” (Katholieke Universiteit Leuven, K.U. Leuven R&D, priority 2009, dated 2013)"}
{"test_system": "M17-TAU P301L cells", "test": "TAU cytotoxicity assay: LDH leakage of retinoic acid incubated M17-TAU P301L cells", "type": "cell-based, human", "conditions": "Homo sapiens, 168 h, reduction of LDH activity of retinoic acid incubated M17-TAU P301L cells, 7 days", "description": "A TAU expression plasmid was constructed by sub-cloning the cDNA of human TAU-P301 L (encoding for TAU with proline 301 substituted by a leucine residue) into mammalian expression vector pcDNA3.1 resulting in plasmid pcDNA3.1-TAU P301L. Plasmids pcDNA3.1 and pcDNA3.1-TAU P301L were transfected to human neuroblastoma cells ([…]; ATCC No. CRL-2267) and independent clonal lines with the plasmids stably integrated into the genome were selected. […] Expression of the TAU P301L genes in the cell lines was confirmed by Western analysis.\nIn degenerated or dead cells lactate dehydrogenase (LDH) is leaked out of the cells into the extracellular environment due to a loss of plasma-membrane integrity. This principle was used to determine cytotoxicity by quantifying the level of leaked LDH into the growth medium.\nThe detailed method for determining TAU cytotoxicity was as follows: From appropriate precultures of M17-3.1 and M17-TAU(P301L) cells were seeded at 2500 cells/cm2 in Optimem Reduced Serum without phenol red (Gibco, Cat. 31985-047) supplemented with 1% fetal calf serum, 1 mM sodium pyruvate, 1× non-essential amino acids, 500 μg/ml G418 0.5× antibiotic/antimycotic. After 3 h of incubation at 37° C./5% CO2 1 volume of Optimem Reduced Serum (same as described above; except without fetal calf serum) supplemented with 2.5 μM retinoic acid (RA) was added. The cells were further incubated for 7 days. Subsequently, LDH activity was determined using Promega Cytotox 96 Non-Radioactive cytotoxicity assay, (Cat. G1780) according the supplier's instructions.\nThe M17-TAU P301L cell line made it possible to assess the ability of novel compounds to counteract TAU cytotoxicity. […] These measurements were used to calculate EC50 values of table 2.\nExemplary compounds of the present invention are shown in table 2, with their chemical name and their EC50 value (expressed in nM) as determined from example 196 in the Tau-induced toxicity experiment.", "units": {"EC50": "nM"}}
{"molecule": "O=C(NCCc1c[nH]c2ccc(Cl)cc12)c1noc(Cc2cccs2)n1", "note": "[Example D180, N-(2-(5-chloro-1H-indol-3-yl)ethyl)-5-(thiophen-2-ylmethyl)-1,2,4-oxadiazole-3-carboxamide]", "EC50": 103}
{"molecule": "O=C(NCCc1c[nH]c2ccc(Cl)cc12)C1CCN(c2ccccc2)C1=O", "note": "(stereo not drawn) [Example D64, N-(2-(5-chloro-1H-indol-3-yl)ethyl)-2-oxo-1-phenylpyrrolidine-3-carboxamide]", "EC50": 313}
{"molecule": "Cc1ccc(N2CCC(C(=O)NCCc3c[nH]c4ccc(Cl)cc34)C2)cc1", "note": "(stereo not drawn) [Example D165, N-(2-(5-chloro-1H-indol-3-yl)ethyl)-1-p-tolylpyrrolidine-3-carboxamide]", "EC50": 188}
{"molecule": "O=C(NCCc1c[nH]c2ccc(Cl)cc12)C1CCN(c2ccc(C(F)(F)F)cc2)C1=O", "note": "(stereo not drawn) [Example D132, N-(2-(5-chloro-1H-indol-3-yl)ethyl)-2-oxo-1-(4-(trifluoromethyl)phenyl)pyrrolidine-3-carboxamide]", "EC50": 57}
{"molecule": "O=C(NCCc1c[nH]c2ccc(Cl)cc12)C1=NOC(c2ccccc2)C1", "note": "(stereo not drawn) [Example D55, N-(2-(5-chloro-1H-indol-3-yl)ethyl)-5-phenyl-4,5-dihydroisoxazole-3-carboxamide]", "EC50": 189}
{"molecule": "O=C(NCCc1c[nH]c2ccc(Cl)cc12)C1CCN(C2CC2)C1=O", "note": "(stereo not drawn) [Example D149, N-(2-(5-chloro-1H-indol-3-yl)ethyl)-1-cyclopropyl-2-oxopyrrolidine-3-carboxamide]", "EC50": 2090}
{"molecule": "O=C(NCCc1c[nH]c2ccc(Cl)cc12)c1cc(-c2ccccc2)on1", "note": "[Example D36, N-(2-(5-chloro-1H-indol-3-yl)ethyl)-5-phenylisoxazole-3-carboxamide]", "EC50": 61}
{"molecule": "O=C(NCCc1c[nH]c2ccc(Cl)cc12)C1CCN(c2ccc3c(c2)CCC3)C1=O", "note": "(stereo not drawn) [Example D145, N-(2-(5-chloro-1H-indol-3-yl)ethyl)-1-(2,3-dihydro-1H-inden-5-yl)-2-oxopyrrolidine-3-carboxamide]", "EC50": 137}
{"molecule": "O=C(NCCc1c[nH]c2ccc(Cl)cc12)C1CCN(c2ccc(Cl)c(F)c2)C1=O", "note": "(stereo not drawn) [Example D142, N-(2-(5-chloro-1H-indol-3-yl)ethyl)-1-(4-chloro-3-fluorophenyl)-2-oxopyrrolidine-3-carboxamide]", "EC50": 561}
{"molecule": "O=C(NCCc1c[nH]c2ccc(Cl)cc12)C1=NOC(Cc2ccccc2)C1", "note": "(stereo not drawn) [Example D43, 5-benzyl-N-(2-(5-chloro-1H-indol-3-yl)ethyl)-4,5-dihydroisoxazole-3-carboxamide]", "EC50": 94}
{"molecule": "COc1ccc(Cc2nc(C(=O)NCCc3c[nH]c4ccc(Cl)cc34)no2)cc1OC", "note": "[Example D178, N-(2-(5-chloro-1H-indol-3-yl)ethyl)-5-(3,4-dimethoxybenzyl)-1,2,4-oxadiazole-3-carboxamide]", "EC50": 125}
{"molecule": "O=C(NCCc1c[nH]c2ccc(Cl)cc12)c1noc(Cc2cccc(F)c2)n1", "note": "[Example D169, N-(2-(5-chloro-1H-indol-3-yl)ethyl)-5-(3-fluorobenzyl)-1,2,4-oxadiazole-3-carboxamide]", "EC50": 26}
{"molecule": "COc1ccc2[nH]cc(CCNC(=O)c3c(-c4ccccc4)noc3C)c2c1", "note": "[Example D109, N-(2-(5-methoxy-1H-indol-3-yl)ethyl)-5-methyl-3-phenylisoxazole-4-carboxamide]", "EC50": 3110}
{"molecule": "Cc1ccc(N2CCC(C(=O)NCCc3c[nH]c4ccc(Cl)cc34)C2=O)cc1F", "note": "(stereo not drawn) [Example D152, N-(2-(5-chloro-1H-indol-3-yl)ethyl)-1-(3-fluoro-4-methylphenyl)-2-oxopyrrolidine-3-carboxamide]", "EC50": 99}
{"molecule": "O=C(NCCc1c[nH]c2ccc(Cl)cc12)c1cc(-c2cccc3c2OCCO3)on1", "note": "[Example D38, N-(2-(5-chloro-1H-indol-3-yl)ethyl)-5-(2,3-dihydrobenzo[b][1,4]dioxin-5-yl)isoxazole-3-carboxamide]", "EC50": 80}
{"molecule": "CCOCC1CC(C(=O)NCCc2c[nH]c3ccc(Cl)cc23)=NO1", "note": "(stereo not drawn) [Example D216, N-(2-(5-chloro-1H-indol-3-yl)ethyl)-5-(ethoxymethyl)-4,5-dihydroisoxazole-3-carboxamide]", "EC50": 77}
{"molecule": "O=C(NCCc1c[nH]c2ccc(Cl)cc12)c1cc(-c2ccc(Cl)cc2)oc1C(F)(F)F", "note": "[Example D68, N-(2-(5-chloro-1H-indol-3-yl)ethyl)-5-(4-chlorophenyl)-2-(trifluoromethyl)furan-3-carboxamide]", "EC50": 337}
{"molecule": "COc1ccccc1N1CCC(C(=O)NCCc2c[nH]c3ccc(Cl)cc23)C1=O", "note": "(stereo not drawn) [Example D163, N-(2-(5-chloro-1H-indol-3-yl)ethyl)-1-(2-methoxyphenyl)-2-oxopyrrolidine-3-carboxamide]", "EC50": 1860}
{"molecule": "CN(C)c1cc(C(=O)NCCc2c[nH]c3ccc(Cl)cc23)no1", "note": "[Example D124, N-(2-(5-chloro-1H-indol-3-yl)ethyl)-5-(dimethylamino)isoxazole-3-carboxamide]", "EC50": 5290}
{"molecule": "Cn1nc(C(=O)NCCc2c[nH]c3ccc(Cl)cc23)cc1-c1ccco1", "note": "[Example D19, N-(2-(5-chloro-1H-indol-3-yl)ethyl)-5-(furan-2-yl)-1-methyl-1H-pyrazole-3-carboxamide]", "EC50": 23}
{"molecule": "Cc1ccc(N2CCC(C(=O)NCCc3c[nH]c4ccc(Cl)cc34)C2=O)cc1", "note": "(stereo not drawn) [Example D133, N-(2-(5-chloro-1H-indol-3-yl)ethyl)-2-oxo-1-p-tolylpyrrolidine-3-carboxamide]", "EC50": 46}
{"molecule": "COc1ccc(Cc2nc(C(=O)NCCc3c[nH]c4ccc(Cl)cc34)no2)cc1", "note": "[Example D173, N-(2-(5-chloro-1H-indol-3-yl)ethyl)-5-(4-methoxybenzyl)-1,2,4-oxadiazole-3-carboxamide]", "EC50": 60}
{"molecule": "O=C(NCCc1c[nH]c2ccc(Cl)cc12)c1cc(-c2ccco2)on1", "note": "[Example D11, N-(2-(5-chloro-1H-indol-3-yl)ethyl)-5-(furan-2-yl)isoxazole-3-carboxamide]", "EC50": 17}
{"molecule": "O=C(NCCc1c[nH]c2ccc(Cl)cc12)c1cc(Cc2cccc(F)c2)on1", "note": "[Example D23, N-(2-(5-chloro-1H-indol-3-yl)ethyl)-5-(3-fluorobenzyl)isoxazole-3-carboxamide]", "EC50": 30}
{"molecule": "COc1cccc(Cc2cc(C(=O)NCCc3c[nH]c4ccc(Cl)cc34)no2)c1F", "note": "[Example D21, N-(2-(5-chloro-1H-indol-3-yl)ethyl)-5-(2-fluoro-3-methoxybenzyl)isoxazole-3-carboxamide]", "EC50": 25}
{"molecule": "O=C(NCCc1c[nH]c2ccc(Cl)cc12)C1=NC(c2ccccc2)CO1", "note": "(stereo not drawn) [Example D83, N-(2-(5-chloro-1H-indol-3-yl)ethyl)-4-phenyl-4,5-dihydrooxazole-2-carboxamide]", "EC50": 979}
{"molecule": "COc1ccccc1Cc1nc(C(=O)NCCc2c[nH]c3ccc(Cl)cc23)no1", "note": "[Example D183, N-(2-(5-chloro-1H-indol-3-yl)ethyl)-5-(2-methoxybenzyl)-1,2,4-oxadiazole-3-carboxamide]", "EC50": 47}
{"molecule": "O=C(NCCc1c[nH]c2ccc(Cl)cc12)c1cc(C(=O)c2cc(F)ccc2F)on1", "note": "[Example D194, N-(2-(5-chloro-1H-indol-3-yl)ethyl)-5-(2,5-difluorobenzoyl)isoxazole-3-carboxamide]", "EC50": 113}
{"molecule": "O=C(NCCc1c[nH]c2ccc(Cl)cc12)c1cc(C2CCCCC2)on1", "note": "[Example D13, N-(2-(5-chloro-1H-indol-3-yl)ethyl)-5-cyclohexylisoxazole-3-carboxamide]", "EC50": 18}
{"molecule": "O=C(NCCc1c[nH]c2ccc(Cl)cc12)C1CCN(c2ccc3c(c2)COC3)C1=O", "note": "(stereo not drawn) [Example D146, N-(2-(5-chloro-1H-indol-3-yl)ethyl)-1-(1,3-dihydroisobenzofuran-5-yl)-2-oxopyrrolidine-3-carboxamide]", "EC50": 1160}
{"molecule": "COc1ccccc1Cc1cc(C(=O)NCCc2c[nH]c3ccc(Cl)cc23)no1", "note": "[Example D8, N-(2-(5-chloro-1H-indol-3-yl)ethyl)-5-(2-methoxybenzyl)isoxazole-3-carboxamide]", "EC50": 16}
{"molecule": "O=C(c1cc(Cc2cc(F)ccc2F)on1)N1CCC(c2c[nH]c3ccc(Cl)cc23)CC1", "note": "[Example D139, (4-(5-chloro-1H-indol-3-yl)piperidin-1-yl)(5-(2,5-difluorobenzyl)isoxazol-3-yl)methanone]", "EC50": 186}
{"molecule": "O=C(NCCc1n[nH]c2ccccc12)c1cc(Cc2cc(F)ccc2F)on1", "note": "[Example D166, N-(2-(1H-indazol-3-yl)ethyl)-5-(2,5-difluorobenzyl)isoxazole-3-carboxamide]", "EC50": 631}
{"molecule": "Cc1nc(C(=O)NCCc2c[nH]c3ccc(Cl)cc23)c(C)o1", "note": "[Example D116, N-(2-(5-chloro-1H-indol-3-yl)ethyl)-2,5-dimethyloxazole-4-carboxamide]", "EC50": 306}
{"molecule": "O=C(NCCc1c[nH]c2ccc(Cl)cc12)c1noc(Cc2ccc(C(F)(F)F)cc2)n1", "note": "[Example D187, N-(2-(5-chloro-1H-indol-3-yl)ethyl)-5-(4-(trifluoromethyl)benzyl)-1,2,4-oxadiazole-3-carboxamide]", "EC50": 32}
{"molecule": "O=C(NCCc1c[nH]c2ccc(Cl)cc12)N1CCN(Cc2ccccc2)C1", "note": "[Example D69, 3-benzyl-N-(2-(5-chloro-1H-indol-3-yl)ethyl)imidazolidine-1-carboxamide]", "EC50": 357}
